Laboratory results published in ChEMBL document CHEMBL1201862, “PubChem BioAssay data set” (2004).
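Protocol summary: plate cells (96-well), add compound at 5 concentrations, incubate 48 h, interpolate endpoints linearly. GI50 marks 50% less growth.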 Active and inactive are the calls of the source. Cut-off read from the data, not from the text of the source: active = GI50 up to about 1.1 µM and inactive = higher.

Columns and labels:
Assay in all cases: NCI tumour cell line growth inhibition, 48 h
[1] = tested on: KM12
[2] = tested on: PC-3
[3] = tested on: SK-OV-3
[4] = tested on: IGROV-1
[5] = tested on: HT-29
[6] = tested on: TK-10
[7] = tested on: SK-MEL-5
[8] = tested on: OVCAR-4
[9] = tested on: OVCAR-8
[10] = tested on: SNB-19
[11] = tested on: CCRF-CEM
[12] = tested on: M14
[13] = tested on: SF-268
[14] = tested on: A498
[15] = tested on: MDA-MB-435
[16] = tested on: OVCAR-3
[17] = tested on: RXF 393
[18] = tested on: SF-539
[19] = tested on: RPMI-8226
[20] = tested on: SR

Measured: GI50

O=c1[nH]nc(-c2ccccc2)n1/N=C/c1c[nH]c2ccccc12
inactive: [1] 5 µM | [2] > 100 µM | [3] > 100 µM | [4] 69.5 µM | [5] 41 µM | [6] 17.6 µM | [7] > 100 µM | [8] > 100 µM | [9] 32.7 µM | [10] > 100 µM | [11] > 100 µM | [12] > 100 µM | [13] 74.6 µM | [14] > 100 µM | [15] 77.1 µM | [16] > 100 µM | [17] 98.4 µM | [18] > 100 µM | [19] > 100 µM

CO[C@]12C[C@H](CNC(=O)c3ccc[nH]3)O[C@H]1NC(=O)N2
inactive: [1] > 100 µM | [2] > 100 µM | [3] > 100 µM | [4] > 100 µM | [5] 33.7 µM | [6] > 100 µM | [7] > 100 µM | [9] > 100 µM | [10] > 100 µM | [11] > 100 µM | [12] > 100 µM | [13] > 100 µM | [14] > 100 µM | [15] > 100 µM | [20] 9.31 µM | [16] > 100 µM | [18] > 100 µM | [19] > 100 µM

COC(=O)C#Cc1cccc(OC)c1OC
inactive: [1] 45.4 µM | [2] 36.7 µM | [3] 48 µM | [5] 27 µM | [6] 41.8 µM | [7] 29.6 µM | [8] 20.4 µM | [9] 40.3 µM | [10] 60.3 µM | [11] 26.6 µM | [12] 49.7 µM | [14] 45 µM | [15] 33.7 µM | [20] 18.7 µM | [16] 41.1 µM | [18] 21.6 µM | [19] 30.1 µM

N/C(CCSCCSCC/C(N)=N\O)=N\O
inactive: [1] > 100 µM | [2] > 100 µM | [3] > 100 µM | [4] > 100 µM | [5] > 100 µM | [6] > 100 µM | [7] > 100 µM | [8] > 100 µM | [10] > 100 µM | [11] > 100 µM | [12] > 100 µM | [13] > 100 µM | [15] > 100 µM | [20] > 100 µM | [16] > 100 µM | [17] > 100 µM | [18] > 100 µM | [19] > 100 µM

CC(=O)OC1COC(Nn2c(=O)[nH]c3ccccc3c2=O)C(OC(C)=O)C1OC(C)=O (stereo unspecified)
inactive: [1] 39.4 µM | [2] > 100 µM | [3] > 100 µM | [4] > 100 µM | [5] > 100 µM | [6] > 100 µM | [7] > 100 µM | [9] 86.9 µM | [10] > 100 µM | [11] > 100 µM | [12] > 100 µM | [13] > 100 µM | [14] > 100 µM | [15] > 100 µM | [20] > 100 µM | [16] > 100 µM | [18] > 100 µM | [19] > 100 µM

Cc1nc2c(=O)n(-c3ccccc3)c3ccccc3c2o1
inactive: [1] > 100 µM | [2] > 100 µM | [3] > 100 µM | [4] > 100 µM | [5] > 100 µM | [6] > 100 µM | [7] > 100 µM | [8] > 100 µM | [9] > 100 µM | [10] > 100 µM | [11] > 100 µM | [12] > 100 µM | [13] > 100 µM | [14] > 100 µM | [15] > 100 µM | [16] > 100 µM | [17] > 100 µM | [18] > 100 µM | [19] > 100 µM

COc1cn2c(cc1=O)COc1ccc(-c3ccccc3)cc1-2
inactive: [1] 52.1 µM | [2] 43.2 µM | [3] > 73.8 µM | [4] 38.8 µM | [5] 45.4 µM | [6] 20 µM | [7] 23.5 µM | [8] > 85.1 µM | [9] > 76.4 µM | [10] 40 µM | [12] 45.4 µM | [13] 60.8 µM | [15] 39.7 µM | [20] 15.2 µM | [16] > 55.7 µM | [17] > 82.6 µM | [19] 42.9 µM
